# ChEMBL document CHEMBL1135241 (Bioorg Med Chem Lett, 2002)
# Assays:
# [1] = molecular target: Mu-type opioid receptor (Cavia porcellus, UniProt P97266); experiment: In vitro biological activity by electrically induced smooth muscle contractions in guinea pig ileum (Opioid receptor mu 1); inhibitory concentration was evaluated; format: functional, tissue-based
# [2] = molecular target: Delta-type opioid receptor (Rattus norvegicus, UniProt P33533); experiment: Binding affinity against Opioid receptor delta 1 using [3H]DT in rat brain synaptosomes was determined; format: subcellular
# [3] = molecular target: Delta-type opioid receptor (Mus musculus, UniProt P32300); experiment: In vitro biological activity by electrically induced smooth muscle contractions in mouse vas deferens (Opioid receptor delta 1); inhibitory concentration was evaluated; format: functional
# [4] = molecular target: Mu-type opioid receptor (Rattus norvegicus, UniProt P33535); experiment: Binding affinity against Opioid receptor mu 1 using [3H]DAMGO in rat brain synaptosomes was determined; format: subcellular
# [5] = Ratio of inhibitory concentration of guinea pig ileum to mouse vas deferens was determined; format: functional
# Sequence of Delta-type opioid receptor (Rattus norvegicus, UniProt P33533) (P33533 whole entry): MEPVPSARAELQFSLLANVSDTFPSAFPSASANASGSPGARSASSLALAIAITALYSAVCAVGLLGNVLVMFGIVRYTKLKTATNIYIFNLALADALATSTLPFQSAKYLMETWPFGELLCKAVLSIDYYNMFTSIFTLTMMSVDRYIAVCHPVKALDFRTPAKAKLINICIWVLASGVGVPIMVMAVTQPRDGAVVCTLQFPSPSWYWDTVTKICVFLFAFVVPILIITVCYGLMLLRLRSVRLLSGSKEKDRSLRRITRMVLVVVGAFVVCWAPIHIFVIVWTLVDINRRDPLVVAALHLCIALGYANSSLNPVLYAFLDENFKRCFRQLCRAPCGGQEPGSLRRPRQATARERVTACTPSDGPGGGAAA
# Sequence of Mu-type opioid receptor (Cavia porcellus, UniProt P97266) (P97266 whole entry): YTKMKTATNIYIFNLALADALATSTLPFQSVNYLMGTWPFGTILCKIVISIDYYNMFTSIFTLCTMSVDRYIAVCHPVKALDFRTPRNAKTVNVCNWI
# Sequence of Mu-type opioid receptor (Rattus norvegicus, UniProt P33535) (P33535 whole entry): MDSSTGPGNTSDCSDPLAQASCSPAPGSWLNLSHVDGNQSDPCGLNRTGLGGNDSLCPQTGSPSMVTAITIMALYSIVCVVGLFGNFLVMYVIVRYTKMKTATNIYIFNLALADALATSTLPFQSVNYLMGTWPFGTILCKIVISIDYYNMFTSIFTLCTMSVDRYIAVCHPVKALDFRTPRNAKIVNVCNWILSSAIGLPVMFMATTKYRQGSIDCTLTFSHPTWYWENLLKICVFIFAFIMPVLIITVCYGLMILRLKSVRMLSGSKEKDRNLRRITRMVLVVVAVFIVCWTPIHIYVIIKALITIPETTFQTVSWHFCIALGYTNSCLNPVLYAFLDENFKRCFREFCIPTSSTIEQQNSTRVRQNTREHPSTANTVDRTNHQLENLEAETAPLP
# Sequence of Delta-type opioid receptor (Mus musculus, UniProt P32300) (P32300 whole entry): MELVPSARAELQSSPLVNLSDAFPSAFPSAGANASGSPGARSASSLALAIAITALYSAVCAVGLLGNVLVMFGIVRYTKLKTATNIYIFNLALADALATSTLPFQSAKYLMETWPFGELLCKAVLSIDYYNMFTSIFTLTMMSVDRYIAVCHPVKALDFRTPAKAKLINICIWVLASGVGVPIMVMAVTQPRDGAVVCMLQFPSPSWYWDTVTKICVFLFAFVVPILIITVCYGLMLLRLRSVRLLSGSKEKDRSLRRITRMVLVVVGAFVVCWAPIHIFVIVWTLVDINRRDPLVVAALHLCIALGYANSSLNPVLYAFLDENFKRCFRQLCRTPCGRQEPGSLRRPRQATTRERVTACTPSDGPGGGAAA
SMILES,IC50 [1] [nM],Ki [2] [nM],IC50 [3] [nM],Ki [4] [nM],Ratio [5]
Cc1cccc(C)c1C[C@@H](NC(=O)[C@@H](C)NC(=O)[C@@H](N)Cc1ccc(O)cc1)C(=O)NCC(=O)N[C@@H](Cc1ccc(O)cc1)C(=O)N1CCC[C@H]1C(=O)N[C@@H](CO)C(N)=O,44.4,3300,–,–,–
Cc1cccc(C)c1C[C@@H](NC(=O)[C@@H](C)NC(=O)[C@@H](N)Cc1ccc(O)cc1)C(=O)N[C@@H](CCC(=O)O)C(=O)N[C@H](C(=O)N[C@H](C(=O)NCC(N)=O)C(C)C)C(C)C,8210,111,145,1960,56
Cc1cccc(C)c1C[C@H](NC(=O)[C@H](C)NC(=O)[C@@H](N)Cc1ccc(O)cc1)C(=O)N[C@@H](CCC(=O)O)C(=O)N[C@H](C(=O)N[C@H](C(=O)NCC(N)=O)C(C)C)C(C)C,6700,0.00105,0.022,1100,304772
Cc1cccc(C)c1C[C@H](NC(=O)[C@H](C)NC(=O)[C@@H](N)Cc1ccc(O)cc1)C(=O)NCC(=O)N[C@@H](Cc1ccc(O)cc1)C(=O)N1CCC[C@H]1C(=O)N[C@@H](CO)C(N)=O,1.21,45.7,–,–,–
CC(C)[C@H](NC(=O)[C@H](CC(=O)O)NC(=O)[C@H](Cc1ccccc1)NC(=O)[C@@H](C)NC(=O)[C@@H](N)Cc1ccc(O)cc1)C(=O)N[C@H](C(=O)NCC(N)=O)C(C)C [DELTORPHIN C],5440,0.0026,–,314,–
C[C@@H](NC(=O)[C@@H](N)Cc1ccc(O)cc1)C(=O)N[C@@H](Cc1ccccc1)C(=O)NCC(=O)N[C@@H](Cc1ccc(O)cc1)C(=O)N1CCC[C@H]1C(=O)N[C@@H](CO)C(N)=O [DERMORPHIN],3.74,–,–,0.092,–
